From publication PMC7159882, “Polyunsaturated fatty acid analogues differentially affect cardiac NaV, CaV, and KV channels through unique mechanisms” (eLife, 2020)

Experiments:
Type in all cases: cell-based
[1] = target: T1, Kv7.1/KCNE1 (Homo sapiens, UniProt P51787); experiment: Two-electrode voltage clamp of Kv7.1/KCNE1 expressed in Xenopus oocytes; parameters: Fitted slope factor of conductance vs voltage relationship: unit of the concentration uncertain; conditions: for IKs I/I0: relative current at 0 mV
T1 construct: cRNA encoding Kv7.1 (UniProt: P51787), KCNE1 (UniProt: P15382.1); expressed in transfected cells; host or cells: Xenopus laevis oocytes (cRNA injection, Kv7.1:KCNE1 3:1 by weight)
Method: (§1) Molecular Biology cRNA encoding Kv7.1 (UniProt: P51787), KCNE1 (UniProt: P15382.1), Nav1.5 (UniProt: Q14524.1), Nav β1 (UniProt: […]), Nav β3 (UniProt: […]), Cav1.2 (GenBank: CAA84346), Cav β3 (Uniprot: P54286), Cav β2 (Uniprot: P54288), and Cav α2δ (Uniprot: P13806) were transcribed using the mMessage mMachine T7 kit (Ambion). 50 ng of cRNA was injected into defolliculated Xenopus laevis oocytes (Ecocyte, Austin, TX): For Kv7.1/KCNE1 channel expression, we injected a 3:1, weight:weight (Kv7.1:KCNE1) cRNA ratio. For Nav1.5 channel expression, we injected a 2:1, weight:weight (Nav1.5:β1) cRNA ratio. For Cav1.2 channel expression, we injected a 2:1:1, weight:weight (Cav1.2:β3:α2δ) cRNA ratio. The exact stoichiometry for channel macromolecular complexes, including α -subunits and auxiliary subunits is not clear for many ion channels. For example, there have been multiple reported stoichiometries for Kv7.1:KCNE1 determined in heterologous expression systems with some groups reporting flexible stoichiometry of 4 Kv7.1: 1–4 KCNE1 and others reporting a fixed stoichiometry of 4 Kv7.1: 2 KCNE1 ([Murray et al., 2016]; [Nakajo et al., 2010]). The ratios of cRNA of α- and auxiliary subunits that we injected in Xenopus laevis oocytes are such that all α-subunits are assumed to be in complex with auxiliary subunits. This allows a more homogenous population of ion channels with auxiliary subunits. One caveat to expressing ion channels as macromolecular complexes is that there are many other auxiliary subunits that could associate with the channel α -subunit that are present in cardiomyocytes and have the potential to alter PUFA-induced effects, but that are not being co-expressed in our experiments. In this work, we are co-expressing some of the auxiliary subunits that have been primarily reported to associate with their respective α -subunits in cardiomyocytes. Following cRNA injection, cells were incubated for 72–96 hr in standard ND96 solution (96 mM NaCl, 2 mM KCl, 1 mM MgCl2, 1.8 mM CaCl2, 5 mM HEPES; pH = 7.5) containing 1 mM pyruvate at 16°C prior to electrophysiological recordings.
Xenopus laevis oocytes were recorded in the two-electrode voltage clamp (TEVC) configuration. Recording pipettes were filled with 3 M KCl. The recording chamber was filled with ND96 (96 mM NaCl, 2 mM KCl, 1 mM MgCl2, 1.8 mM CaCl2, 5 mM HEPES; pH 7.5). For Cav1.2/β3/α2δ channel recordings, Xenopus oocytes were injected with 50 nl of 100 mM EGTA and incubated at 10°C for 30 min prior to electrophysiological recordings in order to sequester cytosolic calcium. In addition, Cav1.2/β3/α2δ channel recordings were done in Ca^2+-free solutions, using Ba^2+ as the charge carrier, to prevent calcium-dependent inactivation of Cav1.2/β3/α2δ channels. Calcium-dependent inactivation was not studied in this work, due to the presence of large calcium-activated chloride currents present in Xenopus laevis oocytes. PUFAs were obtained from Cayman Chemical (Ann Arbor, MI.) or synthesized in house (Linköping, Sweden) through methods previously described ([Bohannon et al., 2020]) and kept at −20 °C as 100 mM stock solutions in ethanol. […] PUFAs were perfused into the recording chamber using the Rainin Dynamax Peristaltic Pump (Model RP-1) (Rainin Instrument Co., Oakland, CA. USA).
Electrophysiological recordings were obtained using Clampex 10.3 software (Axon, pClamp, Molecular Devices). To measure Kv7.1/KCNE1 currents we apply PUFAs as the membrane potential is stepped every 30 s from −80 mV to 0 mV for 5 s before stepping to −40 mV and back to −80 mV to ensure that the PUFA effects on the current at 0 mV reached steady state. A voltage-step protocol was used to measure the current vs. voltage (I-V) relationship before PUFA application and after the PUFA effects had reached steady state for each concentration of PUFA. Cells were held at −80 mV followed by a hyperpolarizing prepulse to −140 mV. […]

[2] = target: T2, Cav1.2/β3/α2δ (Homo sapiens, UniProt Q13936); experiment: Two-electrode voltage clamp of Cav1.2/β3/α2δ expressed in Xenopus oocytes (Ba2+ as charge carrier); conditions: for ICa I/I0: relative current at 0 mV
T2 construct: expressed in transfected cells; host or cells: Xenopus laevis oocytes (cRNA injection, Cav1.2:β3:α2δ 2:1:1 by weight)
Method: as §1
(§2) Xenopus laevis oocytes were recorded in the two-electrode voltage clamp (TEVC) configuration. Recording pipettes were filled with 3 M KCl. The recording chamber was filled with ND96 (96 mM NaCl, 2 mM KCl, 1 mM MgCl2, 1.8 mM CaCl2, 5 mM HEPES; pH 7.5). For Cav1.2/β3/α2δ channel recordings, Xenopus oocytes were injected with 50 nl of 100 mM EGTA and incubated at 10°C for 30 min prior to electrophysiological recordings in order to sequester cytosolic calcium. In addition, Cav1.2/β3/α2δ channel recordings were done in Ca^2+-free solutions, using Ba^2+ as the charge carrier, to prevent calcium-dependent inactivation of Cav1.2/β3/α2δ channels. Calcium-dependent inactivation was not studied in this work, due to the presence of large calcium-activated chloride currents present in Xenopus laevis oocytes. PUFAs were obtained from Cayman Chemical (Ann Arbor, MI.) or synthesized in house (Linköping, Sweden) through methods previously described ([Bohannon et al., 2020]) and kept at −20 °C as 100 mM stock solutions in ethanol. Serial dilutions of the different PUFAs were prepared from stocks to make 0.2 μM, 0.7 μM, 2 μM, 7 μM, and 20 μM concentrations in ND96 solutions (pH = 7.5). PUFAs were perfused into the recording chamber using the Rainin Dynamax Peristaltic Pump (Model RP-1) (Rainin Instrument Co., Oakland, CA. USA).
(§3) Electrophysiological recordings were obtained using Clampex 10.3 software (Axon, pClamp, Molecular Devices). To measure Kv7.1/KCNE1 currents we apply PUFAs as the membrane potential is stepped every 30 s from −80 mV to 0 mV for 5 s before stepping to −40 mV and back to −80 mV to ensure that the PUFA effects on the current at 0 mV reached steady state. A voltage-step protocol was used to measure the current vs. voltage (I-V) relationship before PUFA application and after the PUFA effects had reached steady state for each concentration of PUFA. […]

[3] = target: T3, Nav1.5/β1 (Homo sapiens, UniProt Q14524); experiment: Two-electrode voltage clamp of Nav1.5/β1 expressed in Xenopus oocytes; conditions: for INa I/I0: relative current at 0 mV
T3 construct: Nav1.5 (UniProt: Q14524.1); expressed in transfected cells; host or cells: Xenopus laevis oocytes (cRNA injection, Nav1.5:β1 2:1 by weight)
Method: as §1, §2, §3

T3 sequence (Q14524 whole entry): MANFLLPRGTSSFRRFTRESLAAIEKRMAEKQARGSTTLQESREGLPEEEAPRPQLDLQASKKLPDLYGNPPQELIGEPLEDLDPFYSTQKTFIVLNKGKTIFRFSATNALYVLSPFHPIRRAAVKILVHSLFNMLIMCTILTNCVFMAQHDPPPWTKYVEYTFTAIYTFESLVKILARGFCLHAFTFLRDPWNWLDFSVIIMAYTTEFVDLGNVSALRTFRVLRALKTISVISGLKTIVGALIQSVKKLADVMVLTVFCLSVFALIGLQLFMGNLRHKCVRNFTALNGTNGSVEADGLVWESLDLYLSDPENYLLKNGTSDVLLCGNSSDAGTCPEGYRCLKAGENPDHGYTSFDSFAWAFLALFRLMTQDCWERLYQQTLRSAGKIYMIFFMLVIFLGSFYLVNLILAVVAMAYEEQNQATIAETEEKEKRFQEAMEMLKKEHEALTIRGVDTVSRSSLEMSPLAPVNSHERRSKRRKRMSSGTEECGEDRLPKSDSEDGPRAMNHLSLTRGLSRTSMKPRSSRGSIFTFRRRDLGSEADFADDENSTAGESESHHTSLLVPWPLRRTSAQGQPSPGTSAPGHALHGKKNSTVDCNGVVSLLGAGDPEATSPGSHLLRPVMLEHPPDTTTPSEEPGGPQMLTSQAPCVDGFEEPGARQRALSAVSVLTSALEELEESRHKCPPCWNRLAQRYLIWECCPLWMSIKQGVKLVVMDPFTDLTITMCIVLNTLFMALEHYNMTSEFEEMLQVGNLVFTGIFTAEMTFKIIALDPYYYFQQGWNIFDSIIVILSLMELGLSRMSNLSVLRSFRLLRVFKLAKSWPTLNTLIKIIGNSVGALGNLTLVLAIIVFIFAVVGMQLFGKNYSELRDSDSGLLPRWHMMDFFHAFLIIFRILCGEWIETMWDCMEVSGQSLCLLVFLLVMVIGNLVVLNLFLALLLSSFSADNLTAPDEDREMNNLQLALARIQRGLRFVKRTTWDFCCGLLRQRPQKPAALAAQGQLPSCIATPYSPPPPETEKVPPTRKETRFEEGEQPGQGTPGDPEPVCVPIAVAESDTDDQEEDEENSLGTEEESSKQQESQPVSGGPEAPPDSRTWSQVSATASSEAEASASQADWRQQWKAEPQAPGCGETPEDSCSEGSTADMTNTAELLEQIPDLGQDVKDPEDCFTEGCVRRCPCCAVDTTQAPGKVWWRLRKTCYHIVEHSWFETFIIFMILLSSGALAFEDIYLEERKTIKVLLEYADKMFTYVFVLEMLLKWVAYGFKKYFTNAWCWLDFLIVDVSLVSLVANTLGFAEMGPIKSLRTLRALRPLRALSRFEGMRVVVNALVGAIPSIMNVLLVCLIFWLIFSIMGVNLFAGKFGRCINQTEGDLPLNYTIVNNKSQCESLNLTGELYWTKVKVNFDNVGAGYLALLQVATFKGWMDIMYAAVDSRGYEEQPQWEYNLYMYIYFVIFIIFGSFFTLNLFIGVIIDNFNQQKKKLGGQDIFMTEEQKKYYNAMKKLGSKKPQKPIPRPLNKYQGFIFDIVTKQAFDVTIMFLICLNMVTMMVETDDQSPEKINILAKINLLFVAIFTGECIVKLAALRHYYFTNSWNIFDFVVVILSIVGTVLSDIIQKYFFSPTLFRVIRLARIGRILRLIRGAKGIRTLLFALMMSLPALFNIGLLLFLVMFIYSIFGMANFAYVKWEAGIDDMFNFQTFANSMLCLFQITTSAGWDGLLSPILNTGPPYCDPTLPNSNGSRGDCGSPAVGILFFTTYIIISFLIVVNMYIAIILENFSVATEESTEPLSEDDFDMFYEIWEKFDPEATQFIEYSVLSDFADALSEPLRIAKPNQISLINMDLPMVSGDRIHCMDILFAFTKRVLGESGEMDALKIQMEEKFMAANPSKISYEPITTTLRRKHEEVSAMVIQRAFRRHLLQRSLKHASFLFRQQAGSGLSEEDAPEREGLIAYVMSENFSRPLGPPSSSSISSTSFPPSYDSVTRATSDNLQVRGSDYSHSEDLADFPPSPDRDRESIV
T3 sequence (Q07699 19-218 partner): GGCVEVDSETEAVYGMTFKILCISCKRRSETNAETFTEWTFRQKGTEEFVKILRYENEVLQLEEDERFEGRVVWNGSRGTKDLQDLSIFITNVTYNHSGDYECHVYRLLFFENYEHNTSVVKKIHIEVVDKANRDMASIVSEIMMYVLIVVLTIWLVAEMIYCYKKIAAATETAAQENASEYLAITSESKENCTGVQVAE

**Q.** `CC/C=C\C/C=C\C/C=C\C/C=C\C/C=C\C/C=C\CCC(=O)NCCS(=O)(=O)O` [DHA-taurine] was tested. Which “Fitted slope factor of conductance vs voltage relationship” value ([1]; 0.2 μM) did it give?
**A.** 18.7 ± 1.1 mV

**Q.** And the Gmax/Gmax0 ([1]; 0.2 μM)?
**A.** 1.1 ± 0.04

**Q.** What about the “ΔV0.5 (voltage dependence of activation)” value ([1]; 0.2 μM) of the same compound?
**A.** -1.5 ± 0.4 mV

**Q.** What about the “IKs I/I0” value ([1]; 0.2 μM) of the same compound?
**A.** 1.1 ± 0.03

**Q.** And the “Fitted slope factor of conductance vs voltage relationship” value ([1]; 0.7 μM)?
**A.** 18.6 ± 1.2 mV

**Q.** What about the Gmax/Gmax0 ([1]; 0.7 μM) of the same compound?
**A.** 1.3 ± 0.1

**Q.** What about the “ΔV0.5 (voltage dependence of activation)” value ([1]; 0.7 μM) of the same compound?
**A.** -5.0 ± 1.7 mV

**Q.** And the “IKs I/I0” value ([1]; 0.7 μM)?
**A.** 1.4 ± 0.08

**Q.** And the “Fitted slope factor of conductance vs voltage relationship” value ([1]; 2 μM)?
**A.** 18.6 ± 1.3 mV

**Q.** What about the Gmax/Gmax0 ([1]; 2 μM) of the same compound?
**A.** 1.6 ± 0.2

**Q.** And the “ΔV0.5 (voltage dependence of activation)” value ([1]; 2 μM)?
**A.** -17.5 ± 2.0 mV

**Q.** What about the “IKs I/I0” value ([1]; 2 μM) of the same compound?
**A.** 2.9 ± 0.5

**Q.** And the “Fitted slope factor of conductance vs voltage relationship” value ([1]; 7 μM)?
**A.** 18.1 ± 1.2 mV

**Q.** And the Gmax/Gmax0 ([1]; 7 μM)?
**A.** 1.7 ± 0.1

**Q.** What about the “ΔV0.5 (voltage dependence of activation)” value ([1]; 7 μM) of the same compound?
**A.** −45.3 ± 2.9 mV

**Q.** And the Gmax/Gmax0 ([1]; 20 μM)?
**A.** 1.1 ± 0.9

**Q.** And the “ΔV0.5 (voltage dependence of activation)” value ([1]; 20 μM)?
**A.** -70.5 ± 6.0 mV

**Q.** And the “IKs I/I0” value ([1]; 20 μM)?
**A.** 3.1 ± 0.4

**Q.** What about the Gmax/Gmax0 ([2]; 0.2 μM) of the same compound?
**A.** 1.0 ± 0.05

**Q.** What about the “ΔV0.5 (voltage dependence of inactivation)” value ([2]; 0.2 μM) of the same compound?
**A.** 1.7 ± 0.7 mV

**Q.** And the “ICa I/I0” value ([2]; 0.2 μM)?
**A.** 0.9 ± 0.04

**Q.** And the Gmax/Gmax0 ([2]; 0.7 μM)?
**A.** 1.1 ± 0.1

**Q.** What about the “ΔV0.5 (voltage dependence of inactivation)” value ([2]; 0.7 μM) of the same compound?
**A.** 1.6 ± 0.8 mV

**Q.** And the “ICa I/I0” value ([2]; 0.7 μM)?
**A.** 1.0 ± 0.03

**Q.** And the Gmax/Gmax0 ([2]; 2 μM)?
**A.** 1.1 ± 0.07

**Q.** What about the “ΔV0.5 (voltage dependence of inactivation)” value ([2]; 2 μM) of the same compound?
**A.** 1.7 ± 1.0 mV

**Q.** And the “ICa I/I0” value ([2]; 2 μM)?
**A.** 1.0 ± 0.03

**Q.** What about the Gmax/Gmax0 ([2]; 7 μM) of the same compound?
**A.** 1.1 ± 0.1

**Q.** What about the “ΔV0.5 (voltage dependence of inactivation)” value ([2]; 7 μM) of the same compound?
**A.** 0.2 ± 0.8 mV

**Q.** And the Gmax/Gmax0 ([2]; 20 μM)?
**A.** 0.8 ± 0.1

**Q.** And the “ΔV0.5 (voltage dependence of inactivation)” value ([2]; 20 μM)?
**A.** -3.8 ± 0.9 mV

**Q.** And the “ICa I/I0” value ([2]; 20 μM)?
**A.** 0.7 ± 0.1

**Q.** What about the Gmax/Gmax0 ([3]; 0.2 μM) of the same compound?
**A.** 1.0 ± 0.01

**Q.** And the “ΔV0.5 (voltage dependence of inactivation)” value ([3]; 0.2 μM)?
**A.** -0.5 ± 0.3 mV

**Q.** And the “INa I/I0” value ([3]; 0.2 μM)?
**A.** 1.0 ± 0.03

**Q.** What about the Gmax/Gmax0 ([3]; 0.7 μM) of the same compound?
**A.** 0.9 ± 0.01

**Q.** And the “ΔV0.5 (voltage dependence of inactivation)” value ([3]; 0.7 μM)?
**A.** -2.6 ± 0.5 mV

**Q.** What about the “INa I/I0” value ([3]; 0.7 μM) of the same compound?
**A.** 1.0 ± 0.03

**Q.** What about the Gmax/Gmax0 ([3]; 2 μM) of the same compound?
**A.** 0.6 ± 0.03

**Q.** What about the “ΔV0.5 (voltage dependence of inactivation)” value ([3]; 2 μM) of the same compound?
**A.** -9.4 ± 1.6 mV

**Q.** And the “INa I/I0” value ([3]; 2 μM)?
**A.** 0.7 ± 0.04

**Q.** And the Gmax/Gmax0 ([3]; 7 μM)?
**A.** 0.1 ± 0.01

**Q.** And the “ΔV0.5 (voltage dependence of inactivation)” value ([3]; 7 μM)?
**A.** −28.5 ± 0.6 mV

**Q.** And the Gmax/Gmax0 ([3]; 20 μM)?
**A.** 0.04 ± 0.01

**Q.** What about the “ΔV0.5 (voltage dependence of inactivation)” value ([3]; 20 μM) of the same compound?
**A.** -63.2 ± 10.9 mV

**Q.** What about the “INa I/I0” value ([3]; 20 μM) of the same compound?
**A.** 0.1 ± 0.03
